Test results: the NIST ThermoML archive (doi:10.1016/j.jct.2016.11.002)
Numbers after ± are expanded uncertainties.

How the values were obtained:
[1] = xn = mol fraction of the nth substance listed; conditions: 100 kPa, Liquid; for speed of sound: Frequency=3 MHz, Single path-length method; for mass density: Vibrating tube method
[2] = refractive index (Na D-line) (dimensionless); xn = mol fraction of the nth substance listed; conditions: 100 kPa, Liquid, Standard Abbe refractometry

CCOCCO [2-ethoxyethan-1-ol] + CCOC(=O)OCC
Conditions | mass density, [1] [kg/m3] | refractive index, [2] | speed of sound, [1] [m/s]
298.15 K, x2 = 0 | 925.54 ± 1 | 1.4055 ± 0.0016 | 1302.8 ± 1.3
298.15 K, x2 = 0.0957 | 929.94 ± 1 | 1.4036 ± 0.0016 | 1287 ± 1.3
298.15 K, x2 = 0.1529 | 932.54 ± 1 | 1.4025 ± 0.0016 | 1278.3 ± 1.3
298.15 K, x2 = 0.2624 | 937.43 ± 1 | 1.4003 ± 0.0016 | 1262.2 ± 1.4
298.15 K, x2 = 0.3484 | 941.21 ± 1 | 1.3985 ± 0.0016 | 1250 ± 1.4
298.15 K, x2 = 0.4447 | 945.38 ± 1 | 1.3963 ± 0.0016 | 1236.7 ± 1.4
298.15 K, x2 = 0.5468 | 949.76 ± 1 | 1.3939 ± 0.0016 | 1223.5 ± 1.4
298.15 K, x2 = 0.6539 | 954.3 ± 1 | 1.3912 ± 0.0016 | 1210.8 ± 1.4
298.15 K, x2 = 0.7721 | 959.31 ± 1 | 1.3882 ± 0.0016 | 1198.3 ± 1.4
298.15 K, x2 = 0.8793 | 963.87 ± 1 | 1.3855 ± 0.0016 | 1188 ± 1.4
303.15 K, x2 = 0 | 920.99 ± 1 | 1.4042 ± 0.0016 | 1285 ± 1.3
303.15 K, x2 = 0.0957 | 925.24 ± 1 | 1.4024 ± 0.0016 | 1268.9 ± 1.3
303.15 K, x2 = 0.1529 | 927.76 ± 1 | 1.4012 ± 0.0016 | 1259.8 ± 1.3
303.15 K, x2 = 0.2624 | 932.5 ± 1 | 1.3989 ± 0.0016 | 1243.4 ± 1.4
303.15 K, x2 = 0.3484 | 936.17 ± 1 | 1.397 ± 0.0016 | 1230.7 ± 1.4
303.15 K, x2 = 0.4447 | 940.24 ± 1 | 1.3947 ± 0.0016 | 1217.3 ± 1.4
303.15 K, x2 = 0.5468 | 944.5 ± 1 | 1.3921 ± 0.0016 | 1204 ± 1.4
303.15 K, x2 = 0.6539 | 948.94 ± 1 | 1.3894 ± 0.0016 | 1191.1 ± 1.4
303.15 K, x2 = 0.7721 | 953.83 ± 1 | 1.3862 ± 0.0016 | 1178.3 ± 1.4
303.15 K, x2 = 0.8793 | 958.31 ± 1 | 1.3834 ± 0.0016 | 1167.8 ± 1.4
308.15 K, x2 = 0 | 916.41 ± 1 | 1.4028 ± 0.0016 | 1267.3 ± 1.3
308.15 K, x2 = 0.0957 | 920.51 ± 1 | 1.4011 ± 0.0016 | 1250.7 ± 1.3
308.15 K, x2 = 0.1529 | 922.94 ± 1 | 1.3999 ± 0.0016 | 1241.3 ± 1.3
308.15 K, x2 = 0.2624 | 927.54 ± 1 | 1.3975 ± 0.0016 | 1224.6 ± 1.4
308.15 K, x2 = 0.3484 | 931.11 ± 1 | 1.3954 ± 0.0016 | 1211.9 ± 1.4
308.15 K, x2 = 0.4447 | 935.08 ± 1 | 1.393 ± 0.0016 | 1198.3 ± 1.4
308.15 K, x2 = 0.5468 | 939.21 ± 1 | 1.3904 ± 0.0016 | 1184.7 ± 1.4
308.15 K, x2 = 0.6539 | 943.54 ± 1 | 1.3875 ± 0.0016 | 1171.6 ± 1.4
308.15 K, x2 = 0.7721 | 948.31 ± 1 | 1.3843 ± 0.0016 | 1158.4 ± 1.4
308.15 K, x2 = 0.8793 | 952.72 ± 1 | 1.3813 ± 0.0016 | 1147.6 ± 1.4
313.15 K, x2 = 0 | 911.8 ± 1 | 1.4016 ± 0.0016 | 1249.6 ± 1.3
313.15 K, x2 = 0.0957 | 915.76 ± 1 | 1.3999 ± 0.0016 | 1232.5 ± 1.3
313.15 K, x2 = 0.1529 | 918.09 ± 1 | 1.3987 ± 0.0016 | 1223 ± 1.3
313.15 K, x2 = 0.2624 | 922.55 ± 1 | 1.3961 ± 0.0016 | 1205.9 ± 1.4
313.15 K, x2 = 0.3484 | 926 ± 1 | 1.3939 ± 0.0016 | 1193 ± 1.4
313.15 K, x2 = 0.4447 | 929.84 ± 1 | 1.3914 ± 0.0016 | 1179.3 ± 1.4
313.15 K, x2 = 0.5468 | 933.88 ± 1 | 1.3886 ± 0.0016 | 1165.6 ± 1.4
313.15 K, x2 = 0.6539 | 938.09 ± 1 | 1.3857 ± 0.0016 | 1152.1 ± 1.4
313.15 K, x2 = 0.7721 | 942.77 ± 1 | 1.3823 ± 0.0016 | 1138.6 ± 1.4
313.15 K, x2 = 0.8793 | 947.11 ± 1 | 1.3792 ± 0.0016 | 1127.5 ± 1.4
318.15 K, x2 = 0 | 907.15 ± 1 | 1.4001 ± 0.0016 | 1232 ± 1.3
318.15 K, x2 = 0.0957 | 910.93 ± 1 | 1.3986 ± 0.0016 | 1214.4 ± 1.3
318.15 K, x2 = 0.1529 | 913.21 ± 1 | 1.3973 ± 0.0016 | 1204.6 ± 1.3
318.15 K, x2 = 0.2624 | 917.51 ± 1 | 1.3946 ± 0.0016 | 1187.2 ± 1.4
318.15 K, x2 = 0.3484 | 920.86 ± 1 | 1.3923 ± 0.0016 | 1174.3 ± 1.4
318.15 K, x2 = 0.4447 | 924.57 ± 1 | 1.3897 ± 0.0016 | 1160.4 ± 1.4
318.15 K, x2 = 0.5468 | 928.49 ± 1 | 1.3868 ± 0.0016 | 1146.6 ± 1.4
318.15 K, x2 = 0.6539 | 932.6 ± 1 | 1.3838 ± 0.0016 | 1132.8 ± 1.4
318.15 K, x2 = 0.7721 | 937.19 ± 1 | 1.3804 ± 0.0016 | 1119 ± 1.4
318.15 K, x2 = 0.8793 | 941.45 ± 1 | 1.377 ± 0.0016 | 1107.8 ± 1.4
323.15 K, x2 = 0 | 902.46 ± 1 | 1.3988 ± 0.0016 | 1214.3 ± 1.3
323.15 K, x2 = 0.0957 | 906.11 ± 1 | 1.3973 ± 0.0016 | 1196.3 ± 1.3
323.15 K, x2 = 0.1529 | 908.28 ± 1 | 1.396 ± 0.0016 | 1186.3 ± 1.3
323.15 K, x2 = 0.2624 | 912.44 ± 1 | 1.3931 ± 0.0016 | 1168.7 ± 1.3
323.15 K, x2 = 0.3484 | 915.7 ± 1 | 1.3907 ± 0.0016 | 1155.6 ± 1.4
323.15 K, x2 = 0.4447 | 919.3 ± 1 | 1.388 ± 0.0016 | 1141.6 ± 1.4
323.15 K, x2 = 0.5468 | 923.1 ± 1 | 1.3851 ± 0.0016 | 1127.5 ± 1.4
323.15 K, x2 = 0.6539 | 927.1 ± 1 | 1.382 ± 0.0016 | 1113.6 ± 1.4
323.15 K, x2 = 0.7721 | 931.58 ± 1 | 1.3784 ± 0.0016 | 1099.6 ± 1.4
323.15 K, x2 = 0.8793 | 935.76 ± 1 | 1.3749 ± 0.0016 | 1088.1 ± 1.4
